Measured values from PMC3763380, “Cellular-Level Versus Receptor-Level Response Threshold Hierarchies in T-Cell Activation” (Frontiers in Immunology, 2013).

Experiments:
ILA1 TCR = conditions: SPR, ILA1 TCR/pMHCI; not first reported here (footnote Table 1); ligands largely characterized previously; ref [27], [28]; cited from earlier work
Protocol: Table 1 Biophysical parameters. | column: On-rate (M^−1s^−1); Off-rate (s^−1); KD (M) || Figure 3 Functional variation at the cell population level in response to six different peptide ligands. The CTL clone ILA1 was stimulated for 6 h with peptide-pulsed C1R-A2 targets as indicated. Five functional read-outs (CD107a, MIP-1β, TNF-α, IL-2, and IFN-γ) were measured via flow cytometry. […] (A) Overview of functional profiles. Pie chart segments represent the fraction of cells expressing the number of functions indicated in the key. (B) Detailed analysis of functional profiles at [peptide] = 10^−6 M. Pie charts are extended with arc ...

CTL clone ILA1 = test: Bioassay: ILA1 CTL response to peptide-pulsed C1R-A2null targets (CD8-null HLA-A2), flow cytometry; assay type: cell-based; conditions: read-outs CD107a, MIP-1β, TNF-α, IL-2, IFN-γ
Protocol: Stable C1R transfectants expressing wild-type HLA-A2 (C1R-A2) or CD8-null HLA-A2 (C1R-A2null), the α3 domain of which contains the double mutation D227K/T228A that abrogates CD8 binding ([30]), were pulsed with peptide as indicated for 1 h at 37°C. For each condition, assays were set up simultaneously in 96-well plates using 4.5 × 10^5 C1R cells per well, thereby ensuring that all cellular parameters were consistent across ligand stimulations. Subsequently, brefeldin A (10 μg/ml; BD Biosciences) and monensin (0.7 μl/ml; BD Biosciences) were added together with a pre-titred concentration of the directly conjugated monoclonal antibody (mAb) αCD107a-FITC [BD Pharmingen; Ref. ([31])]. […]
Stained cell samples were acquired and recorded using a customized FACS Aria II flow cytometer (BD Biosciences) equipped for the simultaneous detection of 18 fluorescent parameters. […] The following gating tree was applied: (i) single cells were identified based on their light scatter properties; (ii) Boolean gating was carried out to exclude artifacts and fluorochrome aggregates; (iii) viable CD3^+CD19^− events were selected; (iv) outliers were eliminated in a side-scatter versus CD3 display; and (v) gates were set on cells positive for individual functional read-outs. […]

For “ILAKFLHWL [residues 540–548 (…) of the human telomerase reverse transcriptase protein]”, the Kd (ILA1 TCR) is given as 32 µM, the Off-rate (ILA1 TCR) is given as 0.13 s⁻¹ and the On-rate (ILA1 TCR) is given as 4,100 M^−1s^−1. The “responses at sufficiently high presentation levels” value (CTL clone ILA1) was “strongly attenuated but discernible responses”.
